The values below come from patent publication US20140018380A1, “BICYCLIC HETEROARYL COMPOUNDS AS GPR119 RECEPTOR AGONISTS” (CENTAURUS BIOPHARMA CO., LTD., priority 2011, published 2014).

The experiment has as its target T1, human GPR119 (Homo sapiens, UniProt Q8TDV5).
T1 construct: host or cells: CHO cells (American Type Culture Collection)
T1 sequence (Q8TDV5 1-335): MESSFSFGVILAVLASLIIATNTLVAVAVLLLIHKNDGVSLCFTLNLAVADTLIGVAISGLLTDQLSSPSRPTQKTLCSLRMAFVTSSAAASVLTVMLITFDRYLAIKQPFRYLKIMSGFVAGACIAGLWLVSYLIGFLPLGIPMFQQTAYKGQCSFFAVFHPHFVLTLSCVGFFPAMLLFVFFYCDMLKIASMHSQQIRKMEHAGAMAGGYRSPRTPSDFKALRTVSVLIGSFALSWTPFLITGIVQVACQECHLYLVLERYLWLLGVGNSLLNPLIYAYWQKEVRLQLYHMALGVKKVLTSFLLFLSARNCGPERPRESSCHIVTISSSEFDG
The experiment can be described thus: cAMP assay (HTRF) with human GPR119 stable transfected CHO cells. The note with it: functional agonist activity; intracellular cAMP (HTRF) in human GPR119 stable transfected CHO cells, 30 min at 37° C. It counts as cell-based. The method, then:
Testing of Compounds of the Invention In Vitro (cAMP Assay)
The functional agonist activities of compounds of the invention were characterized using a cAMP assay with human GPR119 stable transfected Chinese hamster ovary (CHO) cells (American Type Culture Collection, Manassas Va., USA). CHO cells were stable transfected with GPR119/pcDNA3.0 (SC307189, Origene). Transfected cells were then selected and maintained in culture media containing […] geneticin. Stable clones were obtained by limiting dilution and the expression of human-GPR119 in CHO cells was confirmed by HTRF (Homogeneous Time-Resolved Fluorescence) cAMP assay. The clones generating the best agonist stimulated signal window were selected for the cAMP assay development.
The cells were cultured in Dulbecco's Modified Eagle Medium (Invitrogen Corporation, Carlsbad, Calif., USA) containing 10% Fetal bovine serum, 1% Pen/Strep and […] G418 and grown in 75 cm2 tissue culture flasks until they reached 75-80% confluence.
The cells were harvested 16 hours prior to assay with 1 ml 0.05% Trypsine, washed with PBS and then plated into 96-well plates (8000 cells/well) containing DMEM medium and 10% BSA. Prior to assay, the cells were washed with assay stimulation buffer (HBSS containing 10 mM IBMX, 20 mM HEPES, 0.1% BSA) twice. Then cells were incubated for 30 min at 37° C. in the absence or presence of varying concentrations of agonists (i.e., the compounds of the present invention) in assay stimulating buffer with 0.1% DMSO. The intracellular levels of cAMP generated in the GPR119 transfected CHO cells were measured using the HTRF kit (CisBio, FR.). In brief, 20 ul d2-labeled cAMP and 20 ul cryptated labeled anti-cAMP antibody were added into 40 ul cells treated with agonist and the plates were incubated for 1 hour at room temperature in the dark. Cells were then transferred into white 96-well plate and the signal generated was measured using Envision (Perkin-Elmer, Norwalk, Conn.). EC50 values were calculated using the GraphPad Prism 5 program.
In general terms: cAMP levels reflect the balance of adenylyl cyclase and phosphodiesterase activity.
The EC50 is the concentration that produces a half-maximal response. Read a low EC50 as a more potent agent. Molecule `CC(C)(C)OC(=O)N1CCC(n2ccc3cc(-c4ccc(S(C)(=O)=O)cc4)c(F)cc32)CC1` [Example 7, tert-butyl 4-(6-fluoro-5-(4-(methylsulfonyl)phenyl)-1H-indol-1-yl)piperidine-1-carboxylate] registered a 50% effective concentration (EC50) of less than 100 nM. The value for `CCc1cnc(N2CCC(n3ncc4cc(-c5ccc(-n6cnnn6)cc5)c(F)cc43)CC2)nc1` [Example 17, 5-(4-(1H-tetrazol-1-yl)phenyl)-1-(1-(5-ethylpyrimidin-2-yl)piperidin-4-yl)-6-fluoro-1H-indazole] was less than 50 nM; that for `CCc1cnc(N2CCC(n3ccc4cc(-c5ccc(S(C)(=O)=O)cc5)c(F)cc43)CC2)nc1` [Example 6, 1-(1-(5-ethylpyrimidin-2-yl)piperidin-4-yl)-6-fluoro-5-(4-(methylsulfony)phenyl)-1H-indole] was less than 100 nM.

The molecule `CCc1cnc(N2CCC(n3ccc4cc(-c5ccc(S(C)(=O)=O)cc5)ncc43)CC2)nc1` [Example 9, 1-(1-(5-ethylpyrimidin-2-yl)piperidin-4-yl)-5-(4-(methylsulfonyl)phenyl)-1H-pyrrolo[2,3-c]pyridine] gave an EC50 of less than 200 nM. The value for `CCc1cnc(N2CCC(n3ccc4cc(-c5ccc(S(C)(=O)=O)cc5)ccc43)CC2)nc1` [Example 1, 1-(1-(5-ethylpyrimidin-2-yl)piperidin-4-yl)-5-(4-(methylsulfonyl)phenyl)-1H-indole] was less than 300 nM; that for `CC(C)c1noc(N2CCC(n3ccc4cc(-c5ccc(S(C)(=O)=O)cc5)c(F)cc43)CC2)n1` [Example 19, 5-(4-(6-fluoro-5-(4-(methylsulfonyl)phenyl)-1H-indol-1-yl)piperidin-1-yl)-3-isopropyl-1,2,4-oxadiazole] was less than 100 nM. In the case of `CCc1cnc(N2CCC(n3nnc4cc(-c5ccc(-n6cnnn6)cc5)cnc43)CC2)nc1` [Example 2, 6-(4-(1H-tetrazol-1-yl)phenyl)-3-(1-(5-ethylpyrimidin-2-yl)piperidin-4-yl)-3H-[1,2,3]triazol o[4,5-b]pyridine] it was less than 500 nM; in that of `CCc1cnc(N2CCC(n3cc(C)c4cc(-c5ccc(S(C)(=O)=O)cc5)ccc43)CC2)nc1` [Example 5, 1-(1-(5-ethylpyrimidin-2-yl)piperidin-4-yl)-3-methyl-5-(4-(methylsulfone)phenyl)-1H-indole], less than 1000 nM. The value for `CCc1cnc(N2CCC(n3ncc4cc(-c5ccc(S(C)(=O)=O)cc5)c(F)cc43)CC2)nc1` [Example 18, 1-(1-(5-ethylpyrimidin-2-yl)piperidin-4-yl)-6-fluoro-5-(4-(methylsulfonyl)phenyl)-1H-indazole] was less than 200 nM.

On to `CCc1cnc(N2CCC(n3ccc4cc(-c5ccc(C#N)c(F)c5)c(F)cc43)CC2)nc1` [Example 13, 4-(1-(1-(5-ethylpyrimidin-2-yl)piperidin-4-yl)-6-fluoro-1H-indol-5-yl)-2-fluorobenzonitrile], for which the concentration for a half-maximal effect (EC50) is less than 500 nM. The value for `CC(C)(C)OC(=O)N1CCC(n2ncc3cc(-c4ccc(S(C)(=O)=O)cc4)ccc32)CC1` [Example 16, tert-butyl 4-(5-(4-(methylsulfonyl)phenyl)-1H-indazol-1-yl)piperidine-1-carboxylate] was less than 300 nM; that for `CCc1cnc(N2CCC(n3cc(Cl)c4cc(-c5ccc(S(C)(=O)=O)cc5)ccc43)CC2)nc1` [Example 8, 3-chloro-1-(1-(5-ethylpyrimidin-2-yl)piperidin-4-yl)-5-(4-(methylsulfonl)phenyl)-1H-indole] was less than 500 nM; that for `CC(C)(C)OC(=O)N1CCC(n2ccc3cc(-c4ccc(S(C)(=O)=O)cc4)ccc32)CC1` [Example 10, tert-butyl 4-(5-(4-(methylsulfonyl)phenyl)-1H-indol-1-yl)piperidine-1-carboxylate] was less than 200 nM.

`CCc1cnc(N2CCC(n3ccc4cc(-c5ccc(NS(C)(=O)=O)cc5)c(F)cc43)CC2)nc1` [Example 15, N-(4-(1-(1-(5-ethylpyrimidin-2-yl)piperidin-4-yl)-6-fluoro-1H-indol-5-yl)phenyl)methanesulfonamide] had an EC50 of less than 1000 nM. In the case of `CCc1cnc(N2CCC(n3ccc4cc(-c5ccc(C#N)cc5)c(F)cc43)CC2)nc1` [Example 14, 4-(1-(1-(5-ethylpyrimidin-2-yl)piperidin-4-yl)-6-fluoro-1H-indol-5-yl)benzonitrile] it was less than 500 nM; in that of `CCc1cnc(N2CCC(n3ccc4cc(-c5ccc(S(C)(=O)=O)cc5F)ccc43)CC2)nc1` [Example 11, 1-(1-(5-ethylpyrimidin-2-yl)piperidin-4-yl)-5-(2-fluoro-4-(methylsulfony)phenyl)-1H-indole], less than 500 nM. In the case of `CCc1cnc(N2CCC(n3ccc4cc(-c5ccc(-n6cnnn6)cc5)c(F)cc43)CC2)nc1` [Example 12, 5-(4-(1H-tetrazol-1-yl)phenyl)-1-(1-(5-ethylpyrimidin-2-yl)piperidin-4-yl)-6-fluoro-1H-indole] it was less than 2000 nM. In the case of `CCc1cnc(N2CCC(n3ccc4cc(-c5ccc(-n6cnnn6)cc5)ccc43)CC2)nc1` [Example 3, 5-(4-(1H-tetrazol-1-yl)phenyl)-1-(1-(5-ethylpyrimidin-2-yl)piperidin-4-yl)-1H-indole] it was less than 300 nM.
